Results as given in ChEMBL document CHEMBL3137667, “[Drug-induced liver injury; fourteenth updated edition of the bibliographic database of liver injuries and related drugs]” (Gastroenterol Clin Biol, 2004).
*1 amine or outer side, *2 acyl side, *3 side chain or, on linkers, in order; H or OH if unused. Where a SMILES comes first, the peptide text is derived from it. Bridges are numbered along the chain shown (N, C = ends). [ ]: non-standard residue; d: D form. The star is where a group is joined. X1 = O=C1C[C@@H](C(=O)[*:2])N([*:1])C[C@H]1CS[C@@H]1CN2CCC1CC2; NMePhe(4-NMe2) = CN[C@@H](Cc1ccc(N(C)C)cc1)C(=O)O; Picolinoyl(3-OH) = O=C(c1ncccc1O)*; Phg = N[C@H](C(=O)O)c1ccccc1; dAbu = CC[C@@H](N)C(=O)O

Key:
[1] = human
[2] = Highest frequency of acute liver toxicity observed during clinical trials, expressed as a percentage. [column '% AIGUE' in source]; details: human
[3] = human, serum
[4] = human; remark: listed apart in the source
[5] = human; remark: listed apart in the source
[6] = human; remark: listed apart in the source
[7] = human; remark: listed apart in the source
[8] = Highest frequency of moderate liver toxicity observed during clinical trials, expressed as a percentage. [column '% BIOL' in source]; details: human
[9] = human; remark: listed apart in the source
[10] = human; remark: listed apart in the source
[11] = human, serum; remark: listed apart in the source
[12] = human; remark: listed apart in the source
[13] = human; remark: listed apart in the source
[14] = human, serum, 4383 h
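For Hepatotoxicity (association with vascular disease) in this document: count of indexed literature references reporting vascular liver injury in humans, e.g. peliosis hepatitis, hepatic veno-occlusive disease or Budd-Chiari syndrome.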
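For Hepatotoxicity (benign tumour) in this document: value is a count of indexed literature references citing a benign tumour confirmed by histopathology.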
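For Hepatotoxicity (choleostasis) in this document: human cholestatic liver injury, shown by histopathology or by peak ALT or AST elevation over alkaline phosphatase ratio below 2, value counts indexed literature reports.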
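For Hepatotoxicity (chronic liver disease) in this document: chronic liver injury confirmed by histopathology or persistently raised serum aminotransferase activity beyond 6 months, value given as the count of indexed literature references.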
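For Hepatotoxicity (cirrhosis) in this document: value is a count of indexed literature references reporting cirrhosis confirmed by histopathology.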
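For Hepatotoxicity (cytolytic) in this document: human cytolytic liver injury, shown by histopathology or by a ratio above 5 of peak ALT or AST elevation to alkaline phosphatase elevation, value counts indexed references.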
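For Hepatotoxicity (granulomatous hepatitis) in this document: value is a count of indexed literature references reporting granulomatous liver disease confirmed by histopathology.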
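For Hepatotoxicity (malignant tumour) in this document: malignant tumour confirmed by histopathology, value gives the count of indexed literature references reporting it.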
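For Hepatotoxicity (severe hepatitis) in this document: human clinical data: severe hepatitis, meaning potentially life-threatening liver failure or clinically observed cases, the value counts how many indexed literature references report it.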
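For Hepatotoxicity (steatosis) in this document: steatosis confirmed by histopathology, value is the count of indexed references.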

Molecule | Hepatotoxicity (cytolytic) [1] | Hepatotoxicity (acute) [2] [%] | Hepatotoxicity (moderate) [3] | Hepatotoxicity (association with vascular disease) [4] | Hepatotoxicity (granulomatous hepatitis) [5] | Hepatotoxicity (malignant tumour) [6] | Hepatotoxicity (steatosis) [7] | Hepatotoxicity (moderate) [8] [%] | Hepatotoxicity (benign tumour) [9] | Hepatotoxicity (cirrhosis) [10] | Hepatotoxicity (acute) [11] | Hepatotoxicity (choleostasis) [12] | Hepatotoxicity (severe hepatitis) [13] | Hepatotoxicity (chronic liver disease) [14] | Hepatotoxicity (acute) ([2]; Liver) [%] | Hepatotoxicity (moderate) ([8]; Liver) [%] | Hepatotoxicity (severe hepatitis) ([13]; Liver)
CCN(CC)CCS(=O)(=O)[C@@H]1CCN2C(=O)c3coc(n3)CC(=O)C[C@H](O)/C=C(C)/C=C/CNC(=O)/C=C/[C@@H](C)[C@@H](C(C)C)OC(=O)[C@@H]12.CC[C@H]1NC(=O)[C@@H](NC(=O)c2ncccc2O)[C@@H](C)OC(=O)[C@H](c2ccccc2)NC(=O)[C@@H]2CC(=O)[C@H](CS[C@@H]3CN4CCC3CC4)CN2C(=O)[C@H](Cc2ccc(N(C)C)cc2)N(C)C(=O)[C@@H]2CCCN2C1=O [QUINUPRISTIN/DALFOPRISTIN] ({Picolinoyl(3-OH)}-T[dAbu]P[NMePhe(4-NMe2)][X1][Phg]; ester 1-C) | 0 | 0 | 8 | 0 | 0 | 0 | 0 | 7.1 | 0 | 0 | 0 | 0 | 0 | 0 |  |  | 
CC[C@H]1OC(=O)[C@H](C)[C@@H](O[C@H]2C[C@@](C)(OC)[C@@H](O)[C@H](C)O2)[C@H](C)[C@@H](O[C@@H]2O[C@H](C)C[C@H](N(C)C)[C@H]2O)[C@](C)(O)C[C@@H](C)[C@@H]2N[C@@H](COCCOC)O[C@H]([C@H]2C)[C@]1(C)O [DIRITHROMYCIN] | 0 | 0 | 3 | 0 | 0 | 0 | 0 | 28.6 | 0 | 0 | 0 | 0 | 0 | 0 |  |  | 
CCOP(=O)(OCC)C(C)NC(=O)N(CCCl)N=O (configuration not stated) [FOTEMUSTINE] | 0 | 0 | 9 | 0 | 0 | 0 | 0 | 30.8 | 0 | 0 | 1 | 0 | 0 | 0 |  |  | 
ETARACIZUMAB | 0 | 0 | 1 | 0 | 0 | 0 | 0 | 77.8 | 0 | 0 | 0 | 0 | 0 | 0 |  |  | 
COc1cc2nc(N3CCN(C(=O)c4ccco4)CC3)nc(N)c2cc1OC [PRAZOSIN] | 0 |  | 0 | 0 | 0 | 0 | 0 |  | 0 | 0 | 1 | 1 |  | 0 | 0.2 | 0 | 0
Cc1nc(NS(=O)(=O)c2ccc(N)cc2)oc1C [SULFAMOXOLE] | 0 | 0 | 0 | 0 | 0 | 0 | 0 | 0 | 0 | 0 | 1 | 0 | 0 | 0 |  |  | 
Cc1cc2c(C(C)C)c(O)c(O)c(C=O)c2c(O)c1-c1c(C)cc2c(C(C)C)c(O)c(O)c(C=O)c2c1O [GOSSYPOL] | 0 | 0 | 1 | 0 | 0 | 0 | 0 | 93 | 0 | 0 | 0 | 0 | 0 | 0 |  |  | 
CC1(C)S[C@@H]2[C@H](N3C(=O)[C@@H](c4ccccc4)NC3(C)C)C(=O)N2[C@H]1C(=O)O [HETACILLIN] | 1 | 0 | 0 | 0 | 0 | 0 | 0 | 0 | 0 | 0 | 1 | 0 | 0 | 0 |  |  | 
